67 compounds from PubChem BioAssay AID1361 (SRMLSC, 2008) can be followed below.

This experiment is described as follows: mitochondrial fusion inhibitors, confirmation, cell-based, chemical genetic, wild-type and mutant (AID 1361). To be noted: Cell-based mitochondrial fusion phenotype, imaging.
The mark [1] stands for this setting: mutant cells, measured here: mutant cell line IC50.

Each structure is given as a SMILES string. The source made the active and inactive calls. No rule for the calls is given here. Some results are limits rather than exact numbers.

One may read the IC50 as the midpoint of a concentration-inhibition curve. As to `Cc1nc(N2CCCCC2C)c2c(C)c(C(=O)Nc3cccc(C(F)(F)F)c3)sc2n1` (centres undefined), the half-inhibitory concentration (IC50) is, setting by setting: (WT cells) 10.6 µM; under setting [1], greater than 25 µM.

As for `CC(C)(C)C1CCc2c(sc(NC(=O)CSc3ncn[nH]3)c2C#N)C1` (centres undefined), the IC50 by setting is: (WT cells) 15.8 µM; under setting [1], greater than 25 µM.

As to `Cc1ccc(NC(=O)C2SC(=Nc3ccccc3)C(C(=O)Nc3ccc(Cl)cc3)=C2N)cc1` (centres undefined), the IC50 reads like this: (WT cells) > 25 µM (inactive); under setting [1], greater than 25 µM.

For the compound `CCOC(=O)C1=CN(c2cccc(F)c2)C=C(C(=O)OCC)C1c1cc(OC)c(O)c([N+](=O)[O-])c1`, the IC50 (WT cells) was 5.68 µM and the IC50 under setting [1] was greater than 25 µM.

Take `CCCC(=O)NC(=S)Nc1cccc(Cl)c1N1CCCCC1`: the IC50 was 22.5 µM (WT cells) and greater than 25 µM under setting [1].

As for `COc1cccc(-c2nc(-c3ccccn3)no2)c1`, the IC50 reads like this: (WT cells) > 25 µM (inactive); under setting [1], greater than 25 µM.

For the compound `CCOc1ccc(NS(=O)(=O)c2cnc(Cl)c(Cl)c2)cc1`, the half-maximal inhibitory concentration (IC50) is, setting by setting: (WT cells) 20.5 µM; under setting [1], greater than 25 µM.

For `CCc1cccc(CC)c1NC(=S)NCCc1c(C)[nH]c2ccc(C)cc12`, the IC50 runs as follows: (WT cells) 9.59 µM; under setting [1], greater than 25 µM.

Regarding `COc1cc(CNn2cn[nH]c2=S)cc(Br)c1OCc1ccccc1F`, the IC50 (WT cells) was 19.7 µM and the IC50 under setting [1] was greater than 25 µM.

In the case of `Clc1ccc(C2=NNC(=NCc3ccc4c(c3)OCO4)SC2)cc1`, the IC50 is, setting by setting: (WT cells) > 25 µM (inactive); under setting [1], greater than 25 µM.

Take `CC(=O)Cc1nsc(NC(=O)c2ccc(-c3ccc(Cl)c(Cl)c3)o2)n1`: the IC50 is, setting by setting: (WT cells) > 25 µM (inactive); under setting [1], greater than 25 µM.

For the compound `COC(=O)c1cn(N(C)c2ncc(C(F)(F)F)cc2Cl)c(=O)c2ccccc12`, the IC50 (WT cells) is 15.8 µM (inactive) and the IC50 under setting [1] was 15.5 µM.

Regarding `Cc1ccc(CNCC(O)(c2ccccc2)c2ccc(F)cc2)cc1` (centres undefined), the IC50 was > 25 µM (inactive) (WT cells) and greater than 25 µM under setting [1].

Take `COc1ccccc1-c1cc(C(F)(F)F)nc(NCc2cccs2)n1`: the IC50 runs as follows: (WT cells) 11.2 µM; under setting [1], greater than 25 µM.

Take `Oc1cccc(C(O)CNCc2ccc(OCc3ccc(Cl)cc3Cl)cc2)c1` (centres undefined): the IC50 is 15 µM (WT cells) and 17.2 µM under setting [1].

On to `CC1CCN(S(=O)(=O)c2ccc(Oc3ccc([N+](=O)[O-])cc3)cc2)CC1`, for which the IC50 reads like this: (WT cells) > 25 µM (inactive); under setting [1], greater than 25 µM.

As to `C/C(=N\O)c1ccc2c3c([nH]c2c1)CCCC3`, the IC50 is > 25 µM (inactive) (WT cells) and greater than 25 µM under setting [1].

Consider `C/C(=N\Nc1cc(-c2ccccc2)nc(-c2ccccc2)n1)c1ccc(O)c(C)c1`, for which the IC50 was 3.31 µM (WT cells) and greater than 25 µM under setting [1].

With `CCOC(=O)/C(=C\c1ccc(OC(F)F)cc1)C1=Nn2c(nnc2-c2ccc(Cl)cc2)SC1`, the IC50 was 10.8 µM (WT cells) and greater than 25 µM under setting [1].

On to `CCCCSc1cnn(-c2ccccc2)c(=O)c1SCCCC`, for which the IC50 is 12.7 µM (WT cells) and greater than 25 µM under setting [1].

On to `COc1ccc(/C=C/c2nc3cc(-c4ccccc4)ccc3o2)cc1O`, for which the IC50 was 11.6 µM (WT cells) and greater than 25 µM under setting [1].

With `CC(C)C(=O)N1CCC(CN=Cc2c(O)n(C3CCCCC3)c(=O)n(C3CCCCC3)c2=O)CC1`, the IC50 is 23 µM (WT cells) and greater than 25 µM under setting [1].

On to `COc1ccc2nc(NC(=O)c3cccc(OCc4c(C)noc4C)c3)sc2c1`, for which the IC50 (WT cells) was > 25 µM (inactive) and the IC50 under setting [1] was greater than 25 µM.

Regarding `CCc1cc(C(=O)Cc2ccc(F)cc2)c(O)cc1O`, the IC50 runs as follows: (WT cells) > 25 µM (inactive); under setting [1], greater than 25 µM.

As for `COc1ccccc1-n1c(SCC(=O)c2ccc(O)cc2O)nc2cc([N+](=O)[O-])ccc21`, the IC50 by setting is: (WT cells) 6.02 µM; under setting [1], greater than 25 µM.

As for `Clc1ccccc1Cn1c(/C=C/c2ccco2)nc2ccccc21`, the IC50 is 11.6 µM (WT cells) and 25 µM under setting [1].

With `CCOc1ccc(-n2c(SCC(=O)Nc3cc(C)on3)nnc2-c2c[nH]c3ccccc23)cc1`, the IC50 was > 25 µM (inactive) (WT cells) and greater than 25 µM under setting [1].

In the case of `Clc1ccc(Cn2c(/C=C/c3ccco3)nc3ccccc32)cc1`, the IC50 reads like this: (WT cells) 12.6 µM; under setting [1], greater than 25 µM.

`COC(=O)[C@@H]1CC[C@H](C)[C@@H](c2ccc(C)cc2)N1C(=O)c1ccc(/C=N/O[C@@H](C)CN2CCCCc3nc(C)c(C)cc32)cc1`: the half-inhibitory concentration (IC50) was 6.19 µM (WT cells) and greater than 25 µM under setting [1].

With `CC(NC(c1ccccc1)c1ccccc1)C(=O)N1CCCc2ccccc21` (centres undefined), the IC50 (WT cells) is 19.9 µM (inactive) and the 50% inhibitory concentration (IC50) under setting [1] is greater than 12.5 µM.

In the case of `CCc1ccccc1N(CC)C(=O)CCc1nc(-c2ccc(C)cc2)no1`, the IC50 by setting is: (WT cells) 19.6 µM; under setting [1], 23.2 µM.

Regarding `Cc1ccc(/C(=N\O)c2oc3c(C)c4oc(=O)cc(C)c4cc3c2C)cc1`, the IC50 reads like this: (WT cells) 7.3 µM; under setting [1], greater than 25 µM.

On to `CSc1nnc(C2CCNCC2)n1C`, for which the IC50 runs as follows: (WT cells) > 25 µM (inactive); under setting [1], greater than 25 µM.

Take `Cc1ccc(NC(=O)c2cc(-c3ccccc3)nn2-c2ccccc2)c(Br)c1`: the IC50 was 4.51 µM (WT cells) and greater than 25 µM under setting [1].

With `Cc1nc2ccccc2nc(C)c1=NOCc1ccc(Cl)cc1Cl`, the IC50 by setting is: (WT cells) 24.2 µM; under setting [1], greater than 25 µM.

In the case of `CC(C)Oc1ccc(C(=O)NC2(C(F)(F)F)NC(=O)N(CCCc3ccccc3)C2=O)cc1` (centres undefined), the IC50 is, setting by setting: (WT cells) 20.2 µM; under setting [1], greater than 25 µM.

As for `CCOC(=O)N1CCC(NC(=O)c2cc(-c3ccc(F)cc3)[nH]c2C)CC1`, the IC50 is, setting by setting: (WT cells) > 25 µM (inactive); under setting [1], greater than 25 µM.

`CCN1C(=O)S/C(=C/c2c(OCc3ccc(C(=O)O)cc3)ccc3ccccc23)C1=O`: the half-inhibitory concentration (IC50) is 18.7 µM (WT cells) and greater than 25 µM under setting [1].

As for `Cc1ccc(CC2SC(=Nc3ccccc3)N(c3ccccc3)C2=O)cc1` (centres undefined), the IC50 is, setting by setting: (WT cells) 18.7 µM; under setting [1], greater than 25 µM.

As to `CCOC(=O)C1=C(CC)Nc2ccccc2N/C1=N\S(=O)(=O)c1ccc2ccccc2c1`, the 50% inhibitory concentration (IC50) (WT cells) is 11 µM and the IC50 under setting [1] was greater than 25 µM.

With `O=C(C1=C[C@H](c2csc3ccccc23)C[C@H](OCc2ccc(CO)cc2)O1)N1CCN(Cc2ccccc2)CC1`, the IC50 is 4.03 µM (WT cells) and 10.5 µM under setting [1].

In the case of `Cc1ccc(NC(=S)N(Cc2cccc(Br)c2)CC2CCC(C(=O)O)CC2)cc1Cl` (centres undefined), the IC50 is, setting by setting: (WT cells) 21.8 µM; under setting [1], greater than 25 µM.

Consider `c1ccc(N(c2ccccc2)c2nc(N3CCCC3)nc(-n3ccnc3)n2)cc1`, for which the IC50 was 15.5 µM (WT cells) and greater than 25 µM under setting [1].

With `COCCNC(=O)CC(NS(=O)(=O)c1ccc(C)cc1)c1ccco1` (centres undefined), the IC50 is > 25 µM (inactive) (WT cells) and greater than 25 µM under setting [1].

`CCOC(=O)c1c(N)sc(C(O)(C(F)(F)F)C(F)(F)F)c1-c1ccccc1`: the IC50 (WT cells) is 20.3 µM and the IC50 under setting [1] was greater than 25 µM.

Turning to `COc1cc(/C=N/N=C(/C(=O)c2ccccc2)c2ccccc2)cc(OC)c1O`, the IC50 by setting is: (WT cells) 16.5 µM; under setting [1], greater than 25 µM.

`COc1ccc(C2CC(=O)c3cnc(Nc4cc(C)cc(C)c4)nc3C2)cc1` (centres undefined): the IC50 was > 25 µM (inactive) (WT cells) and greater than 25 µM under setting [1].

In the case of `O=C(CSCC(=O)OCn1nnc2ccccc2c1=O)Nc1ccc(Cl)cc1`, the IC50 reads like this: (WT cells) > 25 µM (inactive); under setting [1], greater than 25 µM.

Regarding `CC(C)c1ccc(OCc2nc(-c3ccccn3)no2)c(Br)c1`, the IC50 is 15.6 µM (WT cells) and 20.8 µM under setting [1].

In the case of `CC/C(=C(/CC)c1ccc(O)cc1)c1ccc(O)cc1`, the IC50 is, setting by setting: (WT cells) 23.8 µM; under setting [1], greater than 25 µM.

As for `CCOC(=O)c1c(-c2cccs2)csc1NC(=O)C(C)(C)C`, the IC50 is 24.5 µM (WT cells) and greater than 25 µM under setting [1].

Turning to `c1ccc2c(c1)nc(CN1CCOCC1)n1c3ccccc3nc21`, the IC50 (WT cells) was > 25 µM (inactive) and the IC50 under setting [1] was greater than 25 µM.

With `O=C(NC(=S)Nc1ccc(S(=O)(=O)NC2CCCCC2)cc1)c1cccs1`, the IC50 by setting is: (WT cells) 17.6 µM; under setting [1], greater than 25 µM.

`CCC(=Nc1ccc(OC)cc1OC)c1c(O)n(C2CCCCC2)c(=O)[nH]c1=O`: the IC50 runs as follows: (WT cells) 15.9 µM; under setting [1], greater than 25 µM.

With `Cc1ccc(/C=C/C(=O)N2CCC(Cc3ccccc3)CC2)cc1`, the concentration for half-maximal inhibition (IC50) is, setting by setting: (WT cells) 15.1 µM; under setting [1], greater than 25 µM.

Turning to `CCCCCCn1c(N)c(C(=O)NCCN2CCOCC2)c2nc3ccccc3nc21`, the IC50 is > 25 µM (inactive) (WT cells) and greater than 25 µM under setting [1].

Consider `CCc1nnc(NC(=O)C2Cc3ccccc3CN2S(=O)(=O)c2ccc(C)cc2)s1` (centres undefined), for which the IC50 is, setting by setting: (WT cells) > 25 µM (inactive); under setting [1], greater than 25 µM.

Take `CCN(Cc1cc2ccc(C)cc2[nH]c1=O)C(=O)c1ccncc1`: the IC50 is > 25 µM (inactive) (WT cells) and greater than 25 µM under setting [1].

With `Cc1ccc(NCC(=O)N/N=C/c2cc3ccccc3nc2Cl)cc1`, the IC50 is > 25 µM (inactive) (WT cells) and greater than 25 µM under setting [1].

Turning to `CCOC(=O)C1=NN(c2ccccc2)C2(S1)SC(C(C)=O)=C(C)N2c1ccccc1` (centres undefined), the IC50 was 7.84 µM (WT cells) and greater than 25 µM under setting [1].

As for `CC(C)(C)n1nnnc1C(c1cccs1)N(Cc1cccnc1)Cc1ccccc1Cl` (centres undefined), the IC50 reads like this: (WT cells) 23.2 µM; under setting [1], greater than 25 µM.

`CC1CC2(CCCC2)N(C(=O)c2ccccc2)Cc2ccccc21` (centres undefined): the IC50 by setting is: (WT cells) 24.9 µM (inactive); under setting [1], greater than 25 µM.

`COc1ccccc1NC1=C(Cl)C(=O)N(C2CCCCC2)C1=O`: the IC50 is 23.8 µM (WT cells) and greater than 25 µM under setting [1].

On to `COC(=O)c1ccc(-c2sc3nc(N4CCOCC4)c4c(c3c2N)CCCC4)o1`, for which the IC50 is, setting by setting: (WT cells) > 25 µM (inactive); under setting [1], greater than 25 µM.

Turning to `Oc1ccc(/C=N/Nc2nc(N3CCCCCC3)nc(N3CCCCCC3)n2)c(O)c1`, the IC50 (WT cells) was 9.5 µM and the IC50 under setting [1] is greater than 25 µM.

Regarding `Cc1ccc(C(=O)Nc2nc(-c3ccccc3)c(-c3ccccc3)o2)cc1`, the IC50 is 4.97 µM (WT cells) and 9.35 µM under setting [1].

As for `CC(c1ccco1)N(C(=O)COc1ccccc1[N+](=O)[O-])c1ccccn1` (centres undefined), the IC50 is, setting by setting: (WT cells) > 25 µM (inactive); under setting [1], greater than 25 µM.
